Series [1] relates to polarized Caco-2 monolayers. The series can be described thus: Transport of GST-peptide fusions across polarized Caco-2 monolayers (anti-GST ELISA). In kind it is in vitro ADME. As for the experimental part: Transport and uptake of GST-peptide fusions and deletion derivatives across cultured polarized Caco-2 monolayers over 4 hours in HBSS buffer was examined using an anti-GST ELISA assay. In another experiment, transport and uptake of GST-peptide fusions and deletion derivatives across cultured polarized Caco-2 monolayers over 24 hours in serum-free medium (SFM) was examined using an anti-GST ELISA assay.
a) 4 h HBSS study: […] (TER) across the Caco-2 monolayers grown on snapwells (passage 33; 23 days old) was measured to confirm monolayer integrity before beginning the experiment. The medium was removed and the cells were washed once with bHBSS. bHBSS containing 100 μM chloroquine was added and the cells were incubated for 2 h at 37° C. The bHBSS+chloroquine was replaced with 0.5 ml bHBSS containing GST-peptide fusions (10 μg/ml) and the cells were incubated as before. […] At 4h, TER was measured, the apical medium was sampled and the apical reservoir was washed 6 times with HBSS. […]
b) 24 h SFM study: Transepithelial electrical flux (TER) across the Caco-2 monolayers grown on snapwells (passage 33; 23 days old) was measured to confirm monolayer integrity before beginning the experiment. […] After 24 hours, TER readings were taken, and samples from the basolateral and apical reservoirs were removed. […]
On the technique in general: Passage across Caco-2 layers is used to estimate intestinal permeability.

Series [2] relates to fixed Caco-2 cells. The series can be described thus: Effect of thrombin cleavage on binding of GST-peptide fusions to fixed Caco-2 cells. The settings on record: thrombin 18 h at room temperature. Here is the method:
Binding of intact and thrombin-cleaved GST-peptide fusions to fixed Caco-2 cells was compared.
Thirty micrograms of each GST-peptide was treated with bovine thrombin (1 μ/ml; 0.4 NIH units; Sigma CN.T9681) for 18 h at room temperature in 2OmM Tris-HCl pH8.0, 150 mM NaCl, 2.5 mM CaCl2. Controls were similarly treated without addition of thrombin. Ten micrograms of each GST-peptide fusion was removed for PAGE analysis, and 10 μg of fusions were added in duplicate to the fixed Caco-2 cells before 5-fold serial dilutions (1% BPT diluent). The fusions were allowed to bind for 1 h at room temperature. Following 6 washes with 1% BPT, binding was assayed by ELISA.

In series [3] the test system is fixed Caco-2 or C2BBe1 cells. The series can be described thus: ELISA of GST fusion proteins on fixed Caco-2 or C2BBe1 cells. The format is binding. As for the experimental part: Fixed Caco-2, C2BBe1, and A431 cell plates were prepared by growing cells on tissue culture treated microtiter plates. When cells were confluent, plates were fixed with 10% formaldehyde, washed twice with PBS and stored with 0.5%BSA-PBS at −20° C. […] The standard ELISA procedure was followed at this point.
The standard ELISA procedure was modified as follows. GST proteins were diluted to an appropriate concentration in PBS containing lkBSA and 0.05% Tween20 (1%BPT), titered and incubated one hour at room temperature. Following five washes an anti-GST monoclonal antibody was added (Sigma, St. Louis Clone GST-2 diluted 1:10,000 in 1%BPT) and incubated one hour. After five more washes goat anti-mouse IgG2b-HRP was added (Southern Biotechnology Associates Inc., Birmingham, Ala., diluted 1:4000 in 1%BPT) and incubated one hour. After five washes plates were developed with TMB peroxidase substrate (Kirkegard and Perry, Gaithersburg, Md.). All data is presented with background binding subtracted.

Series [4] deals with ZElan024 (P31), ZElan018 (PAX2), ZElan021 (HAX42). The series can be described thus: Crossreactive binding of GST fusions to dansylated peptides. Particulars: 0.5 μg/ml concentration used in competition assays.
Series [5] concerns the target T1, HPT1 (Homo sapiens, UniProt Q12864).
T1 construct: 29-273; made in house
T1 sequence (Q12864 29-273): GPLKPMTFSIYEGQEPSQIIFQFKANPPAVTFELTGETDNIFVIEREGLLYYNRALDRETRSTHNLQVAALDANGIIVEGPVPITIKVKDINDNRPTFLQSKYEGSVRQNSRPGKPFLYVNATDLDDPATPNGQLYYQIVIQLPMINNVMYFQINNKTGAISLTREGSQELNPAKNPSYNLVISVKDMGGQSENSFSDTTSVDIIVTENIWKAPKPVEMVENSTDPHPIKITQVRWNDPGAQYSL
The series can be described thus: Phage receptor ELISA on HPT1. The format is binding. Particulars: Table 5. As for the experimental part:
(§1) 96 well plates were coated overnight with GIT receptor, BSA and, optionally, IDE (insulin degrading enzyme, an irrelevant His-fusion protein)or hTF. The plates were 5 blocked for one hour with 0.5% BSA-PBS. After clarification, the amplified phage were diluted 1:100 in […] plus 0.05% Tween 20 in PBS and added to the plates. Following incubation of the plates on a rotator for 1 to 2 hours, the plates were washed 5 times with 1% BSA plus 0.05% Tween 20 in PBS. Dilute anti-M13-HRP conjugate (anti-M13 antibody linked to horse radish peroxidase (HRP)) was added to all the wells and the plate was incubated for one hour on a rotator. After the plates were washed 5 times, as described above, TMB substrate was added to the wells. The plates were read at 650 nm absorbance.

Series [6] is described as follows: Isoelectric points of synthetic peptides. The format is physicochemical.
Series [7] deals with BSA (Bos taurus, UniProt P02769). The series can be described thus: Phage ELISA on BSA (background control protein). In kind it is binding. The settings on record: Table 5. As for the experimental part: as §1
BSA, sequence (P02769 25-607): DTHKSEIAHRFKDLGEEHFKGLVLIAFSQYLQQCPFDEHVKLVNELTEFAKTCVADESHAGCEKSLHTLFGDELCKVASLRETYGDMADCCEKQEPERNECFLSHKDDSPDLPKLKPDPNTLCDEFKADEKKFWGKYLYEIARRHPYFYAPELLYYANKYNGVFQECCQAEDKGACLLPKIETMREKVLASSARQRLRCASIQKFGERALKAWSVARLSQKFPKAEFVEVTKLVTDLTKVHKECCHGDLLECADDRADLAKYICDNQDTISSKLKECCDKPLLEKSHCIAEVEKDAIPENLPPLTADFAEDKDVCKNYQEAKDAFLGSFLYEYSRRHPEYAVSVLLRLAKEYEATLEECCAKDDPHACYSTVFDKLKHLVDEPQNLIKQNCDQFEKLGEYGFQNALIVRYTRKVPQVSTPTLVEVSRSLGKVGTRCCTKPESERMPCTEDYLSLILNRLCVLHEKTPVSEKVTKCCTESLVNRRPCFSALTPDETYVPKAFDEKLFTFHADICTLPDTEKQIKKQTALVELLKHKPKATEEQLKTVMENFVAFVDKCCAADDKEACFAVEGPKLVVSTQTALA
For orientation: In an ELISA, binding on a coated surface is turned into a signal by an enzyme label.

Consider “gst-RYKHDIGCDAGVDKKSSSVRGGCGAHSSPPRAGRGPRGTMVSRL [GST-DCX8]”, for which the “flux relative to GST alone” value in series [1] is listed as “higher flux than GST alone”. In series [2], the “effect of thrombin cleavage on detection of binding” value is reported as “significantly reduced detection of binding”. Moreover, the “binding to fixed Caco-2 or C2BBe1 cells relative to GST control” value in series [3] is given as “bound fixed Caco-2 or C2BBe1 cells”.

For the substance “gst-SARDSGPAEDGSRAVRLNGVENANTRKSSRSNPRGRRHP [GST-P31]”, the “flux relative to GST alone” value in series [1] is on record as “higher flux than GST alone”. Besides, in series [3], the “binding to fixed Caco-2 or C2BBe1 cells relative to GST control” value is recorded as “bound fixed Caco-2 or C2BBe1 cells”. Besides, the “crossreactive binding to ZElan024 (P31) and ZElan018 (PAX2)” value in series [4] was “no crossreactive binding”.

For the substance “SDHALGTNLRSDNAKEPGDYNCCGNGNSTGRKVFNRRRPSAIPT [HAX42]”, in series [5] (phage panned on HPT-1), the “OD, binding to HPT1” value is recorded as 0.32. For the same substance, the HPT/BSA in series [5] (ratio of HPT-1 to BSA binding) was found to be 5. The substance further showed a pI in series [6] of 9.62. Besides, the “OD, binding to BSA” value in series [7] was 0.071.

Values taken from patent US6703362B1, “Random peptides that bind to gastro-intestinal tract (GIT) transport receptors and related methods” (Cytogen Corporation, priority 1997, dated 2004).
